Laboratory results from patent publication US12251382B2, “Substituted amino-pyrimidine compound for use in a method for treatment and prevention of multiple sclerosis” (Merck Patent GmbH, priority 2018, dated 2025).

System: human patients suffering from relapsing multiple sclerosis (RMS)
Assay: Phase II RMS study: brain MRI (Gd+ T1 lesions, T2 lesions)
Type: in vivo
Parameters: key to Gd+ T1 lesion rate (subject level), Median / Gd+ T1 Lesion rate, adjusted (negative binomial model): number of Gd+ T1 lesions per scan
Conditions: for New or enlarging T2 lesion rate (subject level), Mean ± SD: Weeks 12-24; for Difference in LS means of CFB in cube root of volume of T2 lesions vs placebo: week 24, MMRM
Experimental: The assessing Investigator and central MRI reader were treatment blinded.
The protocol specified that subjects self-administered the IMP at a set time each day (every 12 hours ±2 hours). Subjects were to take their daily dose more than 1 hour prior to a meal or snack and more than 2 hours after a meal or snack. Clear fluids were allowed at any time. On trial visit days, the IMP was to be administered during the trial visit after the scheduled trial visit procedures (other than post-treatment PK/PD sampling) are completed.
Stratification occurred by region (USA or Western Europe, Eastern Europe and BTKO capable, Eastern Europe and not BTKO capable, and RoW). For the first 7 days, Tecfidera was administered orally at 120 mg twice daily. Following this and for the duration of treatment, Tecfidera was administered orally at 240 mg twice daily.
The protocol specified that MRI scans were to be performed at Screening, at 4-week intervals from Week 12 to 24, and at the End of Treatment Visit at Week 48 (including for subjects receiving Tecfidera who choose to enter the OLE Period). […] If a subject discontinued the study more than 4 weeks after his or her most recent MRI, the protocol specified that an MRI may be obtained at the 4-week Safety Follow-up Visit. The Screening MRI scan was to be acquired before randomization and dosing to allow for the readouts to be read by the central MRI reader (approximately 7 days).
Gadolinium was used to enhance T1-weighted lesions and to optimize clarity and accuracy of reporting. As gadolinium is excreted renally, subjects with acute renal insufficiency (eGFR <45 mL/min/1.73 m^2) will be excluded from the trial.
The protocol specified that brain MRI scans were performed according to a standardized imaging protocol before and after the administration of single-dose gadolinium. Images were assessed and reported by an independent, blinded, centralized MRI reading service, provided by NeuroRx Research. The assessment was performed in the absence of clinical information. Further details, including the scans required and the optimal MRI workflow, were provided in a separate Imaging Manual provided to each trial site by NeuroRx Research. All MRI images were reviewed and reported locally by a radiologist for safety. The local report was to contain only non-MS pathology and was to be provided to the Treating Investigator.
The primary endpoint was the total number of gadolinium-enhancing T1 lesions at Week 12, 16, 20, and 24. The primary analysis was a comparison of each evobrutinib dose arm versus placebo based on this endpoint, with a supportive test for dose-response. Secondary Endpoints
Other covariates were permitted to be considered. […] Descriptive statistics for the total number of Gd+ T1 lesions, at Week 12, 16, 20, and 24, are provided for each treatment group.
Estimation of mean per-scan number of Gd+ T1 lesions at Weeks 12, 16, 20, and 24, for each treatment group, was based on the NB model. In the analysis of each secondary endpoint, other covariates were permitted to be included in the model.
Primary and secondary efficacy endpoints were analysed based on the modified intention-to-treat (mITT) analysis set, consisting of all randomized patients with at least one available baseline and one post-baseline MRI assessment. […] For each endpoint, rate ratio (RR; null-hypothesis RR=1.0) adjusted for baseline disease activity was reported together with associated 95% CI and p-value. The T2 lesion endpoint was analysed similarly. Dose-response relationships between evobrutinib treatment dose and primary and key secondary endpoints were assessed for linear and monotonic trend. The analysis of CFB in cube root of volume of T2 lesions at Week 24 was based on a mixed-effect model for repeated measures, with fixed effects for treatment, week of visit, and treatment-by-week interaction, random effect for subject, and adjustment for baseline cube root of lesion volume. CFB in SF-36 score at Week 24 was analysed similarly. […]

[1] = 25 mg QD, listed as evobrutinib
[2] = 75 mg BID, listed as evobrutinib

C=CC(=O)N1CCC(CNc2ncnc(N)c2-c2ccc(Oc3ccccc3)cc2)CC1 [Evobrutinib, 1-(4-(((6-amino-5-(4-phenoxyphenyl)pyrimidin-4-yl)amino)methyl)piperidin-1-yl)prop-2-en-1-one] was tested, and the “Change in volume of T2 lesions from baseline to week 24, Mean ± SD” value (“Change in volume of T2 lesions … Mean ± SD” below) (25 mg QD) was 0.93 ± 1.85 cc, the “Change in volume of T2 lesions from baseline to week 24, Median” value (from here on “Change in volume of T2 lesions … Median”) (25 mg QD) was 0.05 cc and the “Gd+ T1 Lesion rate, adjusted (negative binomial model)” value (shortened to “Gd+ T1 Lesion rate, adjusted”) (25 mg QD) was 1.09. For the same compound, the “Gd+ T1 lesion rate (subject level), Median” value (from here on “Gd+ T1 lesion rate … Median”) (25 mg QD) was 0.25, the “Gd+ T1 lesion rate (subject level; count per scan, weeks 12-24), Mean ± SD” value (25 mg QD) was 1.31 ± 3.13 and the “Total Number of New or Enlarging T2 Lesions at Week 24, Mean ± SD” value (from here on “Total Number … at Week 24, Mean ± SD”) (25 mg QD) was 6.52 ± 11.57. The “Total number of Gd+ T1 lesions at Weeks 12, 16, 20, 24, Mean ± SD” value (shortened to “Total number of Gd+ T1 lesions … Mean ± SD”) (25 mg QD) was 5.23 ± 12.52, the “Total number of Gd+ T1 lesions at Weeks 12, 16, 20, 24, Median (min-max)” value (from here on “Total number of Gd+ T1 lesions … (min-max)”) (25 mg QD) was 1 (0-76) and the “New or enlarging T2 lesion rate (subject level), Mean ± SD” value (25 mg QD) was 2.08 ± 4.19. For the same compound, the “Difference in LS means of CFB in cube root of volume of T2 lesions vs placebo” value (shortened to “Difference in LS means of CFB”) (25 mg QD) was 0.05 cm, the “Change in volume of T2 lesions … Median” value [1] was “increased” and the “Gd+ T1 lesion rate (subject level; count per scan, weeks 12-24), Mean ± SD” value [1] was 1.31±3.13. For the same compound, the “Change in volume of T2 lesions … Mean ± SD” value (75 mg BID) was 0.06 ± 0.50 cc, the “Change in volume of T2 lesions … Median” value (75 mg BID) was −0.02 cc and the “Gd+ T1 Lesion rate, adjusted” value (75 mg BID) was 0.34. The “Gd+ T1 lesion rate … Median” value (75 mg BID) was 0.0, the “Gd+ T1 lesion rate (subject level; count per scan, weeks 12-24), Mean ± SD” value (75 mg BID) was 0.35 ± 0.96 and the “Total Number … at Week 24, Mean ± SD” value (75 mg BID) was 2.26 ± 4.72. For the same compound, the “Total number of Gd+ T1 lesions … Mean ± SD” value (75 mg BID) was 1.39 ± 3.85, the “Total number of Gd+ T1 lesions … (min-max)” value (75 mg BID) was 0 (0-25) and the “New or enlarging T2 lesion rate (subject level), Mean ± SD” value (75 mg BID) was 0.73 ± 1.57. The “New or enlarging T2 lesion rate (subject level), Mean ± SD” value [2] was 0.73±1.57, the “Difference in LS means of CFB” value (75 mg BID) was −0.35 cm and the “Gd+ T1 lesion rate (subject level; count per scan, weeks 12-24), Mean ± SD” value [2] was 0.35±0.96. The “Change in volume of T2 lesions … Mean ± SD” value (75 mg QD) was 0.01 ± 0.57 cc, the “Change in volume of T2 lesions … Median” value (75 mg QD) was −0.01 cc and the “Gd+ T1 Lesion rate, adjusted” value (75 mg QD) was 0.27. The “Gd+ T1 lesion rate … Median” value (75 mg QD) was 0.0, the “Gd+ T1 lesion rate (subject level; count per scan, weeks 12-24), Mean ± SD” value (75 mg QD) was 0.42 ± 1.17 and the “Total Number … at Week 24, Mean ± SD” value (75 mg QD) was 3.57 ± 10.82. The “Total number of Gd+ T1 lesions … Mean ± SD” value (75 mg QD) was 1.69 ± 4.69, the “Total number of Gd+ T1 lesions … (min-max)” value (75 mg QD) was 0 (0-27) and the “Total number of Gd+ T1 lesions versus placebo” value (75 mg QD and 75 mg BID, Weeks 12, 16, 20 and 24) was “significantly reduced Gd+ T1 lesions versus placebo”. For the same compound, the “New or enlarging T2 lesion rate (subject level), Mean ± SD” value (75 mg QD) was 0.89 ± 2.71, the “Difference in LS means of CFB” value (75 mg QD) was −0.35 cm and the “Gd+ T1 lesion rate (subject level; count per scan, weeks 12-24), Mean ± SD” value (75 mg QD, listed as evobrutinib) was 0.42±1.17. For the same compound, the “Total Gd+ T1 lesions over 4 scans in an outlier patient” value (one patient, 25 mg QD) was 76 and the “Dose response of Gd+ T1 lesion count” value (weeks 12-24, p<0.01) was “significant dose response was observed”.
